The record followed here is US20230257480A1, “ENHANCING BLOOD-BRAIN BARRIER DRUG TRANSPORT BY TARGETING ENDOGENOUS REGULATORS” (THE BOARD OF TRUSTEES OF THE LELAND STANFORD JUNIOR …, priority 2019, published 2023).

The test system of this data set is paracellular tight junctions. Put plainly: 3 kDa dextran tracer uptake probing paracellular permeability after ALPL inhibitor treatment. It is filed as in vivo. As to conditions: young and aged mice, vs vehicle. From the text: FIGS. 14A-14D are graphs illustrating flow cytometry quantification of brain endothelial cell uptake of plasma from young mice (3 m.o.) (FIG. 14A), plasma from aged mice (22 m.o.) (FIG. 14B), human holo-transferrin (hu-Tf) from aged mice (FIG. 14C), or transferrin receptor antibody (TfR Ab) from aged mice (FIG. 14D) treated with vehicle (grey) or anti-ALPL (green) via IP injections twice daily for three days, as assessed by % of BECs that are tracer^+ and relative MFI of tracer^+ BECs (for plasma, n=4; for hu-Tf, n=6 vehicle, n=5 anti-ALPL; for TfR Ab, n=9, two-sided t-test, mean+/−s.e.m.). Tracer refers to plasma, hu-Tf, or TfR Ab. FIG. 14E includes representative images of hu-Tf^+ neurons detected in the cortex of mice treated with ALPL inhibitor. Scale bar=40 microns. FIG. 14F includes graphs showing circulating human holo-transferrin and transferrin receptor antibody in blood plasma upon time of sacrifice to control for and ensure no differences in injected amount (for hu-Tf+, n=6 vehicle, n=5 anti-ALPL; for TfR Ab, n=9, two-sided t-test, mean+/−s.e.m.). […] FIG. 14H includes graphs illustrating flow cytometry quantification of brain endothelial cell and brain parenchymal cell uptake of 3 kDa dextran tracer, which probes for disruptions in paracellular permeability, in young mice (3 m.o.) and aged mice (22 m.o.) (n=6 vehicle, n=5 anti-ALPL, two-sided t-test, mean+/−s.e.m.). […]

Consider `COc1ccc(OC)c(S(=O)(=O)Nc2cnc3ccccc3c2)c1` [ALPL inhibitor, 2,5-Dimethoxy-N-(quinolin-3-yl)benzenesulfonamide], for which the paracellular tight junctions entry was “did not perturb vascular morphology or compromise”.
